Results published in US20140243415A1, “COMPOUNDS INHIBITING GALECTIN-1 EXPRESSION, CANCER CELL PROLIFERATION, INVASION, AND TUMORIGENESIS” (ONCOETHIX SA, priority 2011, published 2014).

Experiments:
SQ-shGal1 cells = assay: Antiproliferative effects in galectin-1 silenced cells; format: cell-based, human; conditions: SQ-shGal1 cells in vitro
Experimental: Galectin-1 shRNA, Semaphorin-3A shRNA and scrambled shRNA plasmids were purchased from Santa Cruz Biotechnology (Santa Cruz, Calif., USA) and transfected into cells using the manufacturer's shRNA transfection protocol. Briefly, a mix of 1 μg shRNA plasmid DNA solution and lpl shRNA plasmid transfection reagent were incubated 45 minutes at room temperature and then added on 50% confluent cells with shRNA plasmid transfection medium. After 6 hours incubation at 37° C., normal growth medium containing double serum and antibiotics concentration was added. After 24 h, the stably transfected cells were selected with puromycin.
SQ-shGal1 cells were developed from SQ20B using a small hairpin GAL1-RNA silencing transfection. SQ-shGal1 cells display no difference in cell doubling-time and cloning capacity but expressed lower galectin-1 expression and invasive capacity in matrigel as compared to SQ20B (FIG. 8). […] As shown in FIG. 6C-left, silencing galectin-1 expression in mice was associated with a decreased development of secondary tumors as compared to parental SQ20B tumors. SQ-shGal1 cancer cells in tumors expressed lower level of Ki67 and VEGFR-2 expressions (FIG. 6D).

SQ20B cells = assay: In vitro growth inhibition assay; format: cell-based, human; conditions: SQ20B, OTX-008 added to semaphorin-3A or lactose
Experimental: FIG. 5. Modulation of the galectin-1/semaphorin-3A/neuropilin system in SQ20B cells. A—Effects of galectin-1 (Gall), semaphorin-3A (Sema3A), lactose, with or without four different concentrations of OTX-008 on SQ20B growth at day 6. Embedded figure: Proliferation assay of SQ20B and SQ-shGAL1. B—In vitro matrigel invasion assay of SQ20B exposed to […] galectin-1, 1 μg/ml semaphorin-3A, 200 ng/ml lactose or 10 μM UO126 with or without 3 μM OTX-008. Embedded figure: In vitro matrigel invasion assay of SQ20B and SQ-shGAL1. Invasion was quantified after 48 h by counting the average number of invaded cells.
For proliferation assay, cells were seeded in 96-well tissue culture plates at a density of 1.5×10^3 cells/well. MTT assay was conducted daily to determine the number of viable cells in untreated control and treated group. Growth inhibition curves were plotted as a percentage of cells for each experimental condition.
Galectin-1 may form extracellular lattices counteracting the inhibitory properties of semaphorin-3A on neuropilin-1, eventually leading to the modulation of the vascular endothelial growth factor (VEGFR) and platelet derived growth factor (PDGFR) receptors, fibronectin, and laminin activity SQ20B cells expressed significant mRNA and protein levels of semaphorin-3A and neuropilin-1, PDGFRa&(, VEGF A-D, and VEGFR1-3 (Supplementary FIG. 2A). Thus, SQ20B cells were selected to evaluate the effects of OTX-008 on galectin-1/semaphorin-3A interactions. No difference between SQ20B cells growing in plastic or fibronectin- and laminin-coated plates. […] Galectin-1 and semaphorin-3A induced invasion was inhibited by OTX-008 mimicking the effects of lactose in this model.

[1] = test system: A2780-1A9 ovarian xenografts; assay: A2780-1A9 xenograft model; format: in vivo
Experimental: (§1) FIG. 6. […] A—The antitumor effects of OTX-008 on A2780-1A9 xenograft were compared to that of active doses of cisplatin and paclitaxel—solid line represents days of treatment. B—Immunohistochemistry of galectin-1, Ki67 (MIB-1) and CD31 on A2780-1A9 xenograft. C—Tumor growth and secondary tumor formation of SQ20B xenografts untreated and treated with 10 mg/kg/day OTX-008 and SQ-shGAL1 xenografts. Tumor volume was determined as 3.14(width2)/length—solid line represents days of treatment. D—Immunohistochemistry of galectin-1, MIB1, VEGFR2 and CD31 on SQ20B xenografts
(§2) The immunohistochemical procedure was performed on OCT-embedded subcutaneous tumor stained with H&E, MIB1 ( 1/400, Dako, Glostrup, Denmark), CD31 ( 1/200, Dako), VEGFR2 ( 1/125, Cell Signaling, Saint Quentin Yvelines, France) or galectin-1 (1:20, Abcam, Cambridge, Mass., USA) using an automated immunohistochemical stainer according to the manufacturer's guidelines (streptavidin-peroxidase protocol; Benchmark, Ventana, Tuscon, Ariz., USA). The images were captured and analyzed with a Zeiss observer Z1 microscope. Images quantification was performed using Histolab Software (Microvision, France) subtracting the background. Magnification ×20 and ×40.
A volume containing 8.10^6 A2780-1A9 cancer cells was injected s.c. into the right lateral flank of female nu/nu athymic mice. When tumors become palpable, mice were randomized and treated i.p. with PBS (3 days per week), 5 mg/kg OTX-008 (3 days per week), 6 mg/kg cisplatin (days 1, 8 and 15) or 10 mg/kg taxotere (days 1, 8 and 15). Tumor size was measured three times per week with caliper and tumor volume was calculated as (length×width^2)/2. At the end of the study, animals were sacrificed and tumors collected and frozen in OCT for molecular biology and immunohistochemical analysis. Mouse experiments were approved by the Animal Housing and Experiment Board of the French government.

SQ20B xenografts = assay: SQ20B xenograft model; format: in vivo
Experimental: as §1, §2
5.10^6 SQ20B or SQ20B-shGal1 cancer cells were injected s.c. into the right lateral flank of female nu/nu athymic mice. On day 5, mice were randomized; one group of SQ20B-mice was treated every other day with 10 mg/kg OTX-008 i.p. Tumor size was measured twice weekly with caliper and tumor volume was calculated as 3.14(width^2)/length. At the end of the study, mice were sacrificed, tumors were weighed and stored in OCT for molecular biology and immunohistochemical analysis. Secondary tumors were analyzed on liver, lung, intestine and skin in all mice. Mouse experiments complied with guidelines for Animal Housing and Experiment Board of the French authorities.

[2] = 10 mg/kg OTX-008 i.p. every other day

SMILES: CN(C)CCNC(=O)COc1c2cccc1Cc1cccc(c1OCC(=O)NCCN(C)C)Cc1cccc(c1OCC(=O)NCCN(C)C)Cc1cccc(c1OCC(=O)NCCN(C)C)C2 [OTX-008]
- antiproliferative effects in galectin-1 silenced cells (SQ-shGal1 cells): does not further increase its antiproliferative effects
- antiproliferative effects in combination with semaphorin-3A or lactose (SQ20B cells): enhanced the antiproliferative effects
- tumor growth ([1]; 5 mg/kg OTX-008 i.p., 3 days per week): Tumor growth inhibition
- antitumor effects relative to cisplatin and docetaxel ([1]; 5 mg/kg OTX-008 vs 6 mg/kg cisplatin, 10 mg/kg taxotere): comparable to that of cisplatin and docetaxel
- VEGFR-2 expression ([1]; A2780-1A9 tumors): decreased expression of VEGFR-2
- number of micro-vessels in tumors ([1]; A2780-1A9 tumors): decreased number of micro-vessel
- proliferation as measured by Ki67 expression ([1]; A2780-1A9 tumors): significantly reduced
- toxicity at active doses ([1]; nude mice): no toxicity
- vessels lumen surface area ([1]; vs control): significant decrease of the surface of vessels
- galectin-1 expression in tumors (immunohistochemistry) ([1]; vs non treated tumors): significant lower galectin-1 expression
- mice developing subcutaneous metastasis (SQ20B xenografts; 10 mg/kg OTX-008, control group >80%): 14%
- toxicity of the dose (SQ20B xenografts; [2]): non-toxic dose
- tumor growth (SQ20B xenografts; [2]): inhibited the growth of SQ20B xenografts
- cell proliferation (Ki67) (SQ20B xenografts; SQ20B xenograft): significant decrease
- galectin-1 expression in tumors (SQ20B xenografts; SQ20B xenograft): significant decrease
- secondary tumor development (SQ20B xenografts; at mouse autopsies): significantly inhibited secondary tumor development
- number and diameter of micro-vessels (SQ20B xenografts; vs control): significantly reduced
